Experimental data taken from ChEMBL document CHEMBL4828778, “Novel Compounds as PHD Inhibitors for Treating Heart, Lung, Liver, and Kidney Diseases” (ACS Med Chem Lett, 2021).

What was measured:
Egl nine homolog 1 = Egl nine homolog 1 (Homo sapiens, UniProt Q9GZT9); test: Inhibition of full length human N-terminal His-tagged/TEV cleavage fused PHD2 expressed in baculovirus infected insect cells using HIF1/C35 complex as substrate preincubated for 30 mins followed by substrate addition measured after 10 mins by TR-FRET assay
Prolyl hydroxylase EGLN3 = Prolyl hydroxylase EGLN3 (Homo sapiens, UniProt Q9H6Z9); test: Inhibition of recombinant full length human N-terminal 6His-tagged PHD3 expressed Escherichia coli using HIF1/C35 complex as substrate preincubated for 30 mins followed by substrate addition measured after 10 mins by TR-FRET assay
Prolyl hydroxylase EGLN2 = Prolyl hydroxylase EGLN2 (Homo sapiens, UniProt Q96KS0); test: Inhibition of recombinant full length human N-terminal FLAG-tagged PHD1 expressed in baculovirus expression system using HIF1/C35 complex as substrate preincubated for 30 mins followed by substrate addition measured after 10 mins by TR-FRET assay
Sequence of Prolyl hydroxylase EGLN2 (Q96KS0 whole entry): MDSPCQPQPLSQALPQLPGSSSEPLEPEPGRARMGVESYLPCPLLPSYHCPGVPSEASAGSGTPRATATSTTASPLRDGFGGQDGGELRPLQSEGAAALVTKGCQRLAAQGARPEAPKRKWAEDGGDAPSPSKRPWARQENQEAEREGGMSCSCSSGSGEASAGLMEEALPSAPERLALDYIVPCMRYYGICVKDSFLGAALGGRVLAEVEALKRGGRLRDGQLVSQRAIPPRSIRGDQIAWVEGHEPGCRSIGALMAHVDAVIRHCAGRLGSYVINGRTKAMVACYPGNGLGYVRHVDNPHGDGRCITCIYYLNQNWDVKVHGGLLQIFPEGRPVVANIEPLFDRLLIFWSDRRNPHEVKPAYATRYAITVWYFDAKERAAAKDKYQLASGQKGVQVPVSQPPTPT

Sequence of Prolyl hydroxylase EGLN3 (Q9H6Z9 whole entry): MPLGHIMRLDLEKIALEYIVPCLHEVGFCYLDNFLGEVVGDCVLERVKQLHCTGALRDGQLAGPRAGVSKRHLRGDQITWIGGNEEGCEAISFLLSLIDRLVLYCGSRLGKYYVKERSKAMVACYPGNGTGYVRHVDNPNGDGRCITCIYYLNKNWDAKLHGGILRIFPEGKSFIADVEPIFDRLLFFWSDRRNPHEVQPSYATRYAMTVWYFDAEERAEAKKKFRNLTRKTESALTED
Sequence of Egl nine homolog 1 (Q9GZT9 whole entry, the tested form may be a part): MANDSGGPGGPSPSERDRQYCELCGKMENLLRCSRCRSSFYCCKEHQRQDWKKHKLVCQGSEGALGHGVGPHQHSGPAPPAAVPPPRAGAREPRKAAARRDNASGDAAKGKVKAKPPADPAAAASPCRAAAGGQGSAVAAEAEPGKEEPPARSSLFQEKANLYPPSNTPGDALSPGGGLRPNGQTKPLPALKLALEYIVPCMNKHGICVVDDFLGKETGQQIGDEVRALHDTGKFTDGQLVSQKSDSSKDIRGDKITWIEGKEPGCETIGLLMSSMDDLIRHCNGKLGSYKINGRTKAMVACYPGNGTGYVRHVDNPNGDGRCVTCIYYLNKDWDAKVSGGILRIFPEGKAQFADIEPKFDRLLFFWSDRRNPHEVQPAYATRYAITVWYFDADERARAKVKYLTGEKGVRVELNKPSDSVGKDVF

IC50 (Egl nine homolog 1)	IC50 (Prolyl hydroxylase EGLN3)	IC50 (Prolyl hydroxylase EGLN2)	SMILES
< 100 nM	< 100 nM	< 100 nM	CS(=O)(=O)c1ccc(-n2ncc(-c3ccc(C#N)cc3)c2O)nc1
< 100 nM	< 100 nM	< 100 nM	CC(=O)c1ccc(-n2ncc(-c3ccc(C#N)cc3)c2O)nc1
< 100 nM	< 100 nM	< 100 nM	N#Cc1ccc(-c2cnn(-c3ccc(-c4nccs4)cn3)c2O)cc1
< 100 nM	< 100 nM	< 100 nM	CCS(=O)(=O)Nc1ccc(-n2ncc(-c3ccc(C#N)cc3)c2O)nc1
< 100 nM	< 100 nM	< 100 nM	CCC(=O)Nc1ccc(-n2ncc(-c3ccc(C#N)cc3)c2O)nc1
< 100 nM	< 100 nM	< 100 nM	N#Cc1ccc(-c2cnn(-c3ccc(N4CCCC4=O)cn3)c2O)cc1
